The source of these data is ChEMBL document CHEMBL1146127, “Aminobenzisoxazoles with biaryl P4 moieties as potent, selective, and orally bioavailable factor Xa inhibitors” (Bioorg Med Chem Lett, 2006).

Data set [1] can be described thus: in vivo. As to conditions: dog.
The nature of data set [2]: in vivo. The note with it: dog, po, 0.2 mg/kg.
The nature of data set [3]: in vivo. The note with it: dog, iv, 0.4 mg/kg.
The nature of data set [4]: in vivo. The note with it: dog, iv, 0.4 mg/kg. This is another data set of the same source.

In “in vivo [1]”, `Nc1noc2ccc(-n3nc(C(F)(F)F)cc3C(=O)Nc3ccc(-c4ccccc4CN4CCCC4)cc3F)cc12` had a half-life of 10 h. The bioavailability in “in vivo [2]” is 64%. Moreover, in “in vivo [3]”, the clearance was 28.3 mL/min/kg. Further, the Vd in “in vivo [4]” was determined as 23 L/kg.
